Measured values reported in patent US20060173048A1, “Imidazole derivatives” (priority 2005, published 2006).

Tests used:
rat mGlu2 receptor = target: T1, rat mGlu2 receptor (Rattus norvegicus, UniProt P31421); assay: [3H]-LY354740 binding on mGlu2 transfected CHO cell membranes; conditions: displacement of 10 nM [3H]-LY354740, membranes of CHO cells transfected with rat mGlu2, room temperature, 1 hour
T1 construct: expressed in transfected cells; host or cells: CHO cells, stably transfected (G-418 selection); membranes were prepared from them
Text: [^3H]-LY354740 Binding on mGlu2 Transfected CHO Cell Membranes. Transfection and Cell Culture
cDNA encoding the rat mGlu2 receptor protein in pBluescript II was subcloned into the eukaryotic expression vector pcDNA I-amp from Invitrogen Ltd (Paisley, UK). This vector construct (pcD1mGR^2) was co-transfected with a psvNeo plasmid encoding the gene for neomycin resistance, into CHO cells by a modified calcium phosphate method described by Chen & Okayama (1988). The cells were maintained in Dulbecco's Modified Eagle medium with reduced L-glutamine (2 mM final concentration) and 10% dialysed foetal calf serum from Gibco-Invitrogen (Carlsbad, Calif., USA). Selection was made in the presence of G-418 (1000 ug/ml final) and […]. Clones were identified by reverse transcription of 5 μg total RNA, followed by PCR using mGlu2 receptor specific primers 5′-[…]-3′ and 540 -[…]-3′ in 60 mM Tris HCl (pH 10), 15 mM (NH4)2SO4, 2 mM MgCl2, 25 units/ml Taq Polymerase with 30 cycles annealing at 60° C. for 1 min., extention at 72° C. for 30 s, and 1 min. 95° C. denaturation.
Cells, cultured as above, were harvested and washed three times with cold PBS and frozen at −80° C. The pellet was resuspended in cold 20 mM HEPES-NaOH buffer containing 10 mM EDTA (pH 7.4), and homogenised with a polytron (Kinematica, AG, Littau, Switzerland) for 10 s at 10 000 rpm. After centrifugation for 30 min. at 4° C., the pellet was washed once with the same buffer, and once with cold 20 mM HEPES-NaOH buffer containing 0.1 mM EDTA, (pH 7.4). Protein content was measured using the micro BCA method from Pierce-Perbio (Rockford, Ill., USA) using bovine serum albumin as standard.
After thawing, the membranes were resuspended in cold 50 mM Tris-HCl buffer containing 2 mM MgCl2 (pH 7) (binding buffer). The final concentration of the membranes in the assays was 25 μg protein/ml. Inhibition experiments were performed with membranes incubated with 10 nM [^3H]-LY354740 at room temperature, for 1 hour, in presence of various concentrations of the compound to be tested. Following the incubations, membranes were filtered onto Whatmann GF/B glass fiber filters and washed 5 times with cold binding buffer. Non specific binding was measured in the presence of 10 μM DCG IV. After transfer of the filters into plastic vials containing 10 ml of Ultima-gold scintillation fluid from Perkin-Elmer (Boston, Mass., USA), the radioactivity was measured by liquid scintillation in a Tri-Carb 2500 TR counter (Packard, Zürich, Switzerland).
The inhibition curves were fitted with a four parameter logistic equation giving IC50 values, and Hill coefficients.

T1 sequence (P31421 19-872): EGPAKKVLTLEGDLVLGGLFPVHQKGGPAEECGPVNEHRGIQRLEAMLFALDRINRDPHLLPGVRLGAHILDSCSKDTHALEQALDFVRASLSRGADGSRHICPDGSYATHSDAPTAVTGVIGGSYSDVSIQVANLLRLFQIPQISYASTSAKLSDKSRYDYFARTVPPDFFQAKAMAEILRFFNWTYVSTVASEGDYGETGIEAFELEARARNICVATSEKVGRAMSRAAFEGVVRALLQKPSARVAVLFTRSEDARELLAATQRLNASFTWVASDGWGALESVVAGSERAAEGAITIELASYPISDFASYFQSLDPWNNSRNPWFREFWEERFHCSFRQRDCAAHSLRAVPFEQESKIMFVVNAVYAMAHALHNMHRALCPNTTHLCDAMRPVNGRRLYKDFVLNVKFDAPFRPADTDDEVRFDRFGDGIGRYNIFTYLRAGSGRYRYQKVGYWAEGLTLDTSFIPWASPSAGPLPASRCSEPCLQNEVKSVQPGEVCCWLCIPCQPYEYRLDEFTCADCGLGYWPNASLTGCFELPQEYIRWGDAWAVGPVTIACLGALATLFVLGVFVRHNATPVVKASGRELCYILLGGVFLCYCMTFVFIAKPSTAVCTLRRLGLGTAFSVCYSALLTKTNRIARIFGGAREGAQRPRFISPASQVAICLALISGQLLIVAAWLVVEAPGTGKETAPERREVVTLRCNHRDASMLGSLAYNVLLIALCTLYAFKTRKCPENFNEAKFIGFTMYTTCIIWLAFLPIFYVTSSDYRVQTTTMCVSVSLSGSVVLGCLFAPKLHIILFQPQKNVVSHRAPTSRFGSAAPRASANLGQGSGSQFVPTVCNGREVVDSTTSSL

Q: Which melting point does the source give for C=CCn1c(-c2c(Cl)cccc2Cl)nc(-c2ccncc2)c1-c1ccc(C)cc1 [Example 19, 4-[1-Allyl-2-(2,6-dichloro-phenyl)-5-(4-methyl-phenyl)-1H-imidazol-4-yl]-pyridine] here?
A: 147 to 149 °C

Q: And the Ki (rat mGlu2 receptor)?
A: 0.034 µM

Q: For CCn1c(-c2c(Cl)cccc2Cl)nc(-c2ccncc2)c1-c1ccc(C)cc1 [Example 11, 4-[2-(2,6-Dichloro-phenyl)-1-ethyl-5-(4-methyl-phenyl)-1H-imidazol-4-yl]-pyridine], which melting point is on record?
A: 191 to 193 °C

Q: What about the Ki (rat mGlu2 receptor) of the same molecule?
A: 0.013 µM

Q: Which results are given for Cn1c(-c2c(Cl)cccc2Cl)nc(-c2ccncc2)c1-c1ccc(Cl)cc1 [Example 3, 4-[5-(4-Chloro-phenyl)-2-(2,6-dichloro-phenyl)-1-methyl-1H-imidazol-4-yl]-pyridine]?
A: melting point: 257 to 260 °C; Ki (rat mGlu2 receptor): 0.007 µM
